Results taken from patent US10196357B2, “Biaryl compositions and methods for modulating a kinase cascade” (Athenex, Inc., priority 2007, dated 2019).

How the values were obtained:
c-Src 3T3 cells = test: BrdU cell growth inhibition, c-Src 3T3; assay type: cell-based, mouse; settings: Mus musculus; for activity at 0.1 µM / activity at 1 µM / activity at 10 µM: NIH3T3, read-out: c-Src 3T3 Growth, % of Control Mean, n = 3; for activity at 0.1 µM: 100 nM; for GI50: c-Src 3T3 (c-Src527F/NIH3T3) cells, read-out: GI50
How it was run: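 c-Src 3T3 cells on poly-D-lysine plates in DMEM with 2% FBS, L-glutamine, pyruvate and 10 mM HEPES. Compounds came from 20 mM DMSO stocks diluted in DMEM/10% FBS. Proliferation was read by colorimetric BrdU-incorporation ELISA, and GI50 was extrapolated from growth relative to time-zero and untreated controls.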

[1] = test system: lung cancer cell line A549; test: tumor growth inhibition, A549; assay type: cell-based, Human; settings: Homo sapiens
Text: Growth Inhibition. […] T1 values≤T0 values were designated as T, cytotoxicity.

[2] = test system: colon tumor cell line KM 12; test: tumor growth inhibition, KM12; assay type: cell-based; settings: Homo sapiens; KM12 cells
Experimental: (§1) These GI50's were determined using the standard tumor growth inhibition assays, similar to that described in detail for the HT29 cell line above, and the following cell lines: colon tumor cell lines KM 12, lung cancer cell line H460 and lung cancer cell line A549 (all are NCI standard tumor cell lines).

HT29 cell line = test: BrdU cell growth inhibition, HT29; assay type: cell-based, human; settings: Homo sapiens; for GI50: HT-29, HT29 (Colon) cells, read-out: GI50; for activity at 0.05 µM / activity at 0.5 µM / activity at 5 µM: HT-29, read-out: HT-29 Growth, % of Control Mean, n = 3; for activity at 0.05 µM: 50 nM; for activity at 0.5 µM: 500 nM
How it was run: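 HT29 colon carcinoma cells treated with compounds diluted from 20 mM DMSO stocks into DMEM/10% FBS. Proliferation read as colorimetric BrdU incorporation ELISA; GI calculated relative to untreated cells at time 0 and control cells at day n, with GI50 extrapolated. Net cell loss below time-0 level scored as cytotoxicity.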

[3] = test system: lung cancer cell line H460; test: tumor growth inhibition, H460; assay type: cell-based; settings: Homo sapiens, NCI-H460; H460 cells
Experimental: as §1

Hep 3B = test: MTT growth inhibition, Hep 3B; assay type: cell-based, human; settings: Hep 3B, 8.0×10^3 cells/wells, […] FBS @ 78 Hr
Experimental: (§2) Samples of the test compounds were formulated in 100% DMSO to obtain 20 mM stock solutions; stored @ 4° C. The IC50s and IC80s were determined as described below. Huh7, WRL-68, PLC/PRF/5, Hep 3B, and Hep G2 human cancer lines were routinely cultured and maintained in a basal medium containing 2% FBS @ 37° C., 5% CO2. […] Vehicle control contained cells, no sample. Medium control contained cells, no sample, 0.03% DMSO (highest DMSO concentration present in samples). […] On day 3, 10 μL MTT (5 mg/mL) were added to each well. Cells were incubated in the presence of MTT for 4 hours @ 37° C., 5% CO2. […] Cells were then incubated overnight @ 37°, 5% CO2. OD570 measurements were taken using BioTek Synergy HT multiplatform microplate reader. Growth inhibition curves IC50s and IC80s were determined using GraphPad Prism 5 statistical software.

WRL-68 = test: MTT growth inhibition, WRL-68; assay type: cell-based, human; settings: WRL-68, 8.0×10^3 cells/wells, […] FBS @ 78 Hr
Experimental: as §2

HuH7 = test: MTT growth inhibition, HuH7; assay type: cell-based, human; settings: HuH7, 8.0×10^3 cells/wells, […] FBS @ 78 Hr
Experimental: (§3) Samples of the test compounds were formulated in 100% DMSO to obtain 20 mM stock solutions; stored @ 4° C. The IC50s and IC80s were determined as described below. Huh7, WRL-68, PLC/PRF/5, Hep 3B, and Hep G2 human cancer lines were routinely cultured and maintained in a basal medium containing 2% FBS @ 37° C., 5% CO2. […] The assay medium was basal medium/1.5% FBS. Cells were cultured overnight in 96-well plates at 37° C., 5% CO2 prior to KX2-391. MSA and Dasatinib addition. […] 10 μL of 20× dilutions were added to the appropriate wells (n=3) containing 190 μL cancer cell line; 6561 nM to 0.012 nM range of final concentrations. Vehicle control contained cells, no sample. Medium control contained cells, no sample, 0.03% DMSO (highest DMSO concentration present in samples). […] On day 3, 10 μL MTT (5 mg/mL) were added to each well. Cells were incubated in the presence of MTT for 4 hours @ 37° C., 5% CO2. […] Cells were then incubated overnight @ 37°, 5% CO2. OD570 measurements were taken using BioTek Synergy HT multiplatform microplate reader. Growth inhibition curves IC50s and IC80s were determined using GraphPad Prism 5 statistical software.

PLC/PRF/5 = test: MTT growth inhibition, PLC/PRF/5; assay type: cell-based, human; settings: PLC/PRF/5, 8.0×10^3 cells/wells, […] FBS @ 78 Hr
Experimental: as §2

Hep G2 = test: MTT growth inhibition, Hep G2; assay type: cell-based, human; settings: Hep G2, 8.0×10^3 cells/wells, […] FBS @ 78 Hr
Experimental: as §3

786-O = test: renal tumor cell growth inhibition, 786-O; assay type: cell-based, Human; settings: Homo sapiens, 786-0, renal cell adenocarcinoma
Experimental: (§4) These GI50s were determined using standard tumor growth inhibition assays, similar to those described in detail in this Example 7.

769-P = test: renal tumor cell growth inhibition, 769-P; assay type: cell-based, Human; settings: Homo sapiens
Experimental: as §4

Caki-2 = test: renal tumor cell growth inhibition, Caki-2; assay type: cell-based, Human; settings: Homo sapiens; Caki-2, clear cell carcinoma
Experimental: as §4

ACHN = test: renal tumor cell growth inhibition, ACHN; assay type: cell-based, Human; settings: Homo sapiens, renal cell adenocarcinoma
Experimental: as §4

[4] = test system: wild-type aywl strain of HBV; test: HBV primary assay (HepG2-2.2.15 antiviral assay); assay type: cell-based; settings: Test Concentration 10 μM
Experimental: The HBV primary assay developed was conducted similarly to that described by Korba et al., (Antiviral Res. 15: 217-228 (1991) and Antiviral Res. 19: 55-70 (1992)) with the exception that viral DNA detection and quantification have been improved and simplified (Korba et al., Antiviral Res. 19: 55-70 (1992)).
Compound 38 (KX2-377), Compound 136 (KX2-393), and Compound 137 (KX2-394) were evaluated for potential anti-HBV activity using a single high-test concentration of compounds in the standardized HepG2-2.2.15 antiviral assay. The HepG2-2.2.15 is a stable cell line producing high levels of the wild-type aywl strain of HBV. Briefly, HepG2-2.2.15 cells were plated in 96-well plates. Only the interior wells were utilized to reduce “edge effects” observed during cell culture; the exterior wells are filled with complete medium to help minimize sample evaporation. On the following day, the confluent monolayer of HepG2-2.2.15 cells was washed and the medium is replaced with complete medium containing test concentrations of a test article in triplicate. 3TC was used as the positive control, while media alone was added to cells as the untreated control. Three days later the culture medium was replaced with fresh medium containing the appropriately diluted drug. Six days following the initial administration of the test compound, the cell culture supernatant was collected, treated with pronase and DNAse and then used in a real-time quantitative TaqMan PCR assay for direct measurement of HBV DNA copies using an ABI Prism 7900 sequence detection system (Applied Biosystems, Foster City, Calif.).
(§5) The antiviral activity of each test compound was calculated by comparing its HBV DNA copies against that of the untreated control cells (100%) to derive percent inhibition level. After removing the supernatant, the remaining cells were subject to CellTiter 96 Aqueous One (Promega, Madison, Wis.) solution cell proliferation assay (MTS-based) to measure cell viability. Cytotoxicity of the compound was determined by comparing its cell viability with that of the untreated cell control to derive percentage of the cell control.

HepG2-2.2.15 cells = test: cytotoxicity in HBV primary assay (MTS); assay type: cell-based; settings: Test Concentration 10 μM
Experimental: as §5

[5] = cisplatin-induced hearing loss; assay type: in vivo; settings: guinea pigs, subcutaneous treatment prior to cisplatin
Experimental: The effects of high level noise and ototoxic drugs, such as cisplatin or the class of aminoglycosides, share several common features in the inner ear. First, the noise and/or drugs alter the free radical/antioxidant levels in the cochlea (inner ear). […] Guinea pigs (N=7) were used in studies of cisplatin-induced hearing loss. The animals' hearing sensitivity was measured using standard electrophysical techniques before the experimental manipulation. […] Animals were anesthetized and treated with cisplatin. Subsequently, the animals' hearing was tested to determine evoked potential threshold shifts.
KX1 is CH65. Animals were treated subcutaneously with KX1-004 prior to the cisplatin-induced hearing loss.

[6] = noise-induced hearing loss; assay type: in vivo, Chinchillas; settings: chinchilla ears treated on round window, 4 kHz band noise 105 dB SPL 4 h, days 1, 7, 21; relative to control ears
Experimental: Chinchillas (N=6) were used in studies of noise-induced hearing loss. The animals' hearing sensitivity was measured using standard electrophysical techniques before the experimental manipulation. […] Animals were anesthetized, the auditory bullae were opened, and the left and right cochleas were visualized. The round window leading to the scala tympani of the cochlea was used as the access point for drug application. Animals were treated with KX1-004, KX1-141, KX1-329 or KX2-328 (a non-ATP competitive inhibitor from AstraZeneca, KX2-238), emulsified in DMSO, in 1000 mM of saline solution, which was placed on the round window of one ear. KX1-004:
A control solution of 3 mM DMSO in 1000 mM of saline solution was placed on the round window of the other ear. The solution was allowed to set on the round window for 30 minutes, then the auditory bullae were closed. […] Following the noise exposure, the animals' hearing was tested at day 1, day 7, and day 21 to determine evoked potential threshold shifts. Permanent threshold shift was assessed at day 21.
FIGS. 10-12 show the average threshold shifts for animals treated with KX1-004, KX1-141, KX1-329 or KX2-328.

Compound | melting point [°C] | GI50 [2] [µM] | GI50 (HT29 cell line) [µM] | GI50 [3] [µM] | activity at 0.1 µM (c-Src 3T3 cells) [%] | activity at 1 µM (c-Src 3T3 cells) [%] | activity at 10 µM (c-Src 3T3 cells) [%] | GI50 (c-Src 3T3 cells) [µM] | activity at 0.05 µM (HT29 cell line) [%] | activity at 0.5 µM (HT29 cell line) [%] | activity at 5 µM (HT29 cell line) [%] | also measured
O=C(Cc1ccc(-c2ccc(OCCN3CCOCC3)cc2)cn1)NCc1ccccc1 [KX2-391-MSA] | – | – | – | – | – | – | – | – | – | – | – | IC50 (Hep 3B): 0.026 µM; IC80 (Hep 3B): 0.088 µM; IC50 (WRL-68): 0.015 µM; IC80 (WRL-68): 0.025 µM; IC50 (HuH7): 0.009 µM; IC80 (HuH7): 0.023 µM; IC50 (PLC/PRF/5): 0.013 µM; IC80 (PLC/PRF/5): 0.024 µM; IC50 (Hep G2): 0.06 µM; IC80 (Hep G2): 3.66 µM
CN1CCN(CCOc2ccc(-c3ccc(CC(=O)NCc4cccc(F)c4)cc3)c(F)c2)CC1 [KX2-402] | – | – | – | – | – | – | – | – | – | – | – | GI50 (786-O): 0.0577 µM; GI50 (769-P): 0.0084 µM; GI50 (Caki-2): 0.005 µM; GI50 (ACHN): 0.0069 µM
Cl.Cl.O=C(Cc1ccc(-c2ccc(OCCN3CCOCC3)cc2)cn1)NCc1ccccc1 [KXO1:2HCl] | – | – | – | – | – | – | – | – | – | – | – | Antiviral Activity Percent inhibition of cell control [4]: 48.2%; Interpretation [4]: Cytotoxic; Cytotoxicity Percent of cell control (HepG2-2.2.15 cells): 51.3%
KX1-004 | – | – | – | – | – | – | – | – | – | – | – | protection against cisplatin-induced hearing loss [5]: protected against ciplatin-induced hearing loss; average dB threshold shifts [6]: lower

Continued, in another order:

melting point [°C] | GI50 [2] [µM] | GI50 (HT29 cell line) [µM] | GI50 [3] [µM] | Compound | activity at 0.1 µM (c-Src 3T3 cells) [%] | activity at 1 µM (c-Src 3T3 cells) [%] | activity at 10 µM (c-Src 3T3 cells) [%] | GI50 (c-Src 3T3 cells) [µM] | activity at 0.05 µM (HT29 cell line) [%] | activity at 0.5 µM (HT29 cell line) [%] | activity at 5 µM (HT29 cell line) [%] | also measured
169 to 170 | 0.105 | 0.484 | 0.28 | O=C(Cc1ccc(-c2ccccc2)cc1)NCc1cccc(O)c1 [KX1-136, N(3-hydroxy-benzyl)-4-biphenylacetamide] | 46.3 | < 0 | < 0 | 0.053 | 83.1 | < 0 | < 0 | GI50 ([1]; A549 (Lung) cells): 0.33 µM
170 to 172 | 0.41 | 0.877 | 0.89 | O=C(Cc1ccc(-c2ccccc2)cc1)NCc1cccc(F)c1 [KX1-305, N(3-fluoro-benzyl)-4-biphenylacetamide] | 35 | < 0 | < 0 | 0.349 | 108 | < 0 | < 0 | GI50 ([1]; A549 cells): 1.03 µM
